Results from patent US20150150769A1, “COSMETIC COMPOSITIONS COMPRISING DITERPENOIC ACIDS, E.G. GIBBERELLIC ACIDS” (Cutech S.r.L., priority 2011, published 2015).

Key:
[1] = tested on: Human anagen hair follicles; experiment: Growth (elongation) of cultured isolated human hair follicles; type: cell-based
Protocol: (§1) Human anagen hair follicles were isolated from scalp skin taken from a single donor and transferred for cultivation in sterile 24 well plates using a modified Williams' Medium E. Cultivation took place for nine days, while the experimental treatment of the follicles started 24 hours from the beginning of the cultivation. Hair follicles were selected for the experiments after 18 h of cultivation. Only follicles showing a good vital stage and a growth of not less than 0.2 mm were considered suitable to be maintained in culture. All experimental groups and the control group were prepared by including 12 follicles, plated in 24 well plates at a density of 3 hair follicles (HFs) per well. […] The growth of the hair follicles was studied by performing image analyses on microphotographs. All hair follicles were photographed at day 5 of culture (day 4 of treatment) and then at day 9 of culture (day 8 of treatment).

[2] = tested on: Human anagen hair follicles; experiment: Histological analysis of hair follicles (anagen/catagen stage, dermopapilla morphology); type: cell-based; conditions: for Anagen phase / Catagen phase: after 9 days of cultivation
Protocol: as §1
The experiment according to Examples 1 to 3 was terminated after 9 days of cultivation. Subsequently, the hair follicles were subjected to histological analysis by staining with haematossilin and eosin in order to verify the morphological state of the dermopapilla.

## C=C1C[C@]23C[C@@]1(O)CC[C@H]2[C@@]12C=C[C@H](O)[C@@](C)(C(=O)O1)[C@H]2[C@@H]3C(=O)O [Gibberellin, Gibberellic acid]
[1]; Homo sapiens, Examples 1-3, 1 μg/ml, P<0.01, read-out: inhibitory action on hair growth in comparison with the untreated sample
  inhibition at 1 µg/mL: 19%
[1]; Table 1, Examples 1-3, 0.01 μg/ml, day 9 of culture
  Growth of hair follicles: Elongation performance, Average: 88.2 ± 7.0 percentage of the control group
[1]; Table 1, Examples 1-3, 0.1 μg/ml, day 9 of culture
  Growth of hair follicles: Elongation performance, Average: 85.6 ± 5.4 percentage of the control group
[1]; Table 1, Examples 1-3, 1.0 μg/ml, day 9 of culture
  Growth of hair follicles: Elongation performance, Average: 80.6 ± 5.4 percentage of the control group
[1]; Table 2, Examples 4-6, 0.01 μg/ml, 9 days of cultivation
  Growth of hair follicles: Elongation performance, Average: 81.4 ± 5.9 percentage of the control group
[1]; Table 2, Examples 4-6, 0.1 μg/ml, 9 days of cultivation
  Growth of hair follicles: Elongation performance, Average: 89.8 ± 8.0 percentage of the control group
[1]; Table 2, Examples 4-6, 1.0 μg/ml, 9 days of cultivation
  Growth of hair follicles: Elongation performance, Average: 82.7 ± 6.6 percentage of the control group
[1]; Table 3, Examples 7-8, 0.1 μg/ml, 9 days of cultivation
  Growth of hair follicles: Elongation performance, Average: 76.6 ± 4.3 percentage of the control group
[1]; Table 3, Examples 7-8, 1.0 μg/ml, 9 days of cultivation
  Growth of hair follicles: Elongation performance, Average: 69.9 ± 3.2 percentage of the control group
[1]; Table 4, Examples 9-10, 0.1 μg/ml, 9 days of cultivation
  Growth of hair follicles: Elongation performance, Average: 77.7 ± 5.8 percentage of the control group
[1]; Table 4, Examples 9-10, 1.0 μg/ml, 9 days of cultivation
  Growth of hair follicles: Elongation performance, Average: 72.3 ± 4.9 percentage of the control group
[1]; Table 5, Examples 11-12, 0.1 μg/ml, 9 days of cultivation
  Growth of hair follicles: Elongation performance, Average: 91.3 ± 4.7 percentage of the control group
[1]; Table 5, Examples 11-12, 1.0 μg/ml, 9 days of cultivation
  Growth of hair follicles: Elongation performance, Average: 79.9 ± 5.9 percentage of the control group
[2]; Examples 13-14, 0.1 and 1 μg/ml, result in words
  effect on decline of the hair follicles into the catagen phase: significantly anticipated the decline into the catagen phase
[2]; Table 6, Example 13, 0.1 μg/ml
  Anagen phase: 22.2
  Catagen phase: 77.8
[2]; Table 6, Example 14, 1 μg/ml
  Anagen phase: 9.1
  Catagen phase: 90.9

## Gibberellic acid [Gibberellin]
[1]; Examples 7-8, 1 μg/ml, P<0.001
  change of hair follicle growth in comparison to the control group: −30.1%
[1]; Examples 9-10, 1 μg/ml, P<0.001
  change of hair follicle growth in comparison to the control group: −27.7%
[1]; Examples 11-12, 1 μg/ml, P<0.01
  change of hair follicle growth in comparison to the control group: −20%
[1]; Examples 11-12, depending on the treatment dosage (0.1-1.0 μg/ml)
  reduction of hair growth in comparison to the control group: up to 20%
